Reference: patent US11214803B2, “Modulators of YAP1 expression” (Ionis Pharmaceuticals, Inc., priority 2019, dated 2022)
Strand notation (5' to 3'): a small letter for the sugar, then the base; units joined by * are phosphorothioate-linked, units joined directly phosphodiester-linked; [ ] holds rarer units or linkages, { } end groups; capitals alone tell only the bases. k = constrained ethyl (cEt); [5mC] = 5-methylcytosine; d = 2'-deoxy (DNA)

Each substance was assayed on Yap1 mRNA (assay: Antisense inhibition of human Yap1 in A-431 cells by cEt gapmers, single dose (Example 4, RTS4814)). Conditions: Table 14; A-431 cells, 5,000 cells per well, free uptake, 2,000 nM, approximately 48 hours; RTS4814; normalized to RIBOGREEN; Yap1 mRNA relative to untreated control; * = targets amplicon region of primer probe set.
Assay type: cell-based
How it was run: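 Values are % UTC: Yap1 mRNA by quantitative RT-PCR, normalized to RIBOGREEN total RNA. Cells were exposed ~48 h to 2,000 nM oligonucleotide without transfection. Oligonucleotides were 16-nucleoside gapmers with three cEt nucleosides per wing, ten-deoxy gap, P=S linkages throughout.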

Substance	YAP1 (% UTC)
1076224 (kT*kA*kT*dA*dA*dA*d[5mC]*d[5mC]*dT*dT*dG*d[5mC]*dT*kA*k[5mC]*kA; antisense) [Compound 1076224]	67 % UTC
1075808 (kG*k[5mC]*kA*dA*dT*dA*dG*dA*dG*dT*dA*dA*d[5mC]*k[5mC]*kA*kG; antisense) [Compound 1075808]	3 % UTC
1074336 (antisense k[5mC]*k[5mC]*kA*dG*dT*dG*dT*dT*dG*dG*dT*dA*dA*k[5mC]*kT*kG) [Compound 1074336]	97 % UTC
1075040 (antisense kT*kT*kA*dT*dA*dA*dA*dG*dA*dG*dG*d[5mC]*dT*k[5mC]*kA*kG) [Compound 1075040]	10 % UTC
1075680 (kA*kT*kT*dA*dT*dT*dA*d[5mC]*d[5mC]*d[5mC]*d[5mC]*dT*dT*k[5mC]*kT*kA; antisense) [Compound 1075680]	73 % UTC
1074112 (kT*k[5mC]*k[5mC]*dA*dA*d[5mC]*dT*d[5mC]*d[5mC]*d[5mC]*dT*dT*dG*kA*k[5mC]*kG; antisense) [Compound 1074112]	83 % UTC
1075936 (k[5mC]*kT*kT*dA*dT*dA*dT*dT*d[5mC]*dT*d[5mC]*dT*d[5mC]*k[5mC]*kG*kA; antisense) [Compound 1075936]	49 % UTC
1076288 (k[5mC]*kT*kT*dA*dT*dT*dT*dA*dG*d[5mC]*dA*dT*dA*kG*kT*kG; antisense) [Compound 1076288]	3 % UTC
1076064 (kT*kA*kT*dG*dA*dA*d[5mC]*dA*dA*dT*dG*dT*dA*k[5mC]*kT*k[5mC]; antisense) [Compound 1076064]	5 % UTC
1076384 (kT*kA*kT*dA*dA*dG*dG*dG*dA*d[5mC]*dT*dT*dG*k[5mC]*kT*kG; antisense) [Compound 1076384]	25 % UTC

Same assay, conditions: Table 15; A-431 cells, 5,000 cells per well, free uptake, 2,000 nM, approximately 48 hours; RTS4814; normalized to RIBOGREEN; Yap1 mRNA relative to untreated control; * = targets amplicon region of primer probe set

Substance	YAP1 (% UTC)
1076193 (kT*kT*kA*dA*dT*dA*d[5mC]*dA*d[5mC]*dA*dG*dG*dT*kT*k[5mC]*k[5mC]; antisense) [Compound 1076193]	29 % UTC
1075617 (kT*kA*kA*dG*dA*dA*d[5mC]*dG*dA*d[5mC]*dA*dT*dA*kT*kG*k[5mC]; antisense) [Compound 1075617]	27 % UTC
1076417 (k[5mC]*kT*kT*dT*dA*d[5mC]*dA*d[5mC]*d[5mC]*dG*dA*dA*dA*kT*kG*kA; antisense) [Compound 1076417]	42 % UTC
1076385 (kA*kT*kA*dT*dA*dA*dG*dG*dG*dA*d[5mC]*dT*dT*kG*k[5mC]*kT; antisense) [Compound 1076385]	32 % UTC
1074209 (antisense k[5mC]*k[5mC]*kG*dG*dA*dG*d[5mC]*d[5mC]*dT*d[5mC]*dA*dT*dG*kG*kG*k[5mC]) [Compound 1074209]	72 % UTC
1075713 (kA*kA*kT*d[5mC]*dA*dA*d[5mC]*d[5mC]*dT*dT*dG*dT*dT*kA*kG*kA; antisense) [Compound 1075713]	58 % UTC
1074561 (antisense kA*kA*kT*dT*d[5mC]*d[5mC]*dA*dA*dT*d[5mC]*dG*dA*dG*kA*k[5mC]*kT) [Compound 1074561]	10 % UTC

Same assay, conditions: Table 16; A-431 cells, 5,000 cells per well, free uptake, 2,000 nM, approximately 48 hours; RTS4814; normalized to RIBOGREEN; Yap1 mRNA relative to untreated control cells

Substance	YAP1 (% UTC)
1076130 (k[5mC]*kT*kG*dG*dA*dA*dT*dA*dG*dT*dG*dG*dG*kT*kG*k[5mC]; antisense) [Compound 1076130]	34 % UTC
1075170 (antisense kA*k[5mC]*kT*dA*dA*dA*dA*dT*d[5mC]*d[5mC]*d[5mC]*d[5mC]*dA*kA*kG*kG) [Compound 1075170]	94 % UTC
1075234 (antisense kG*kT*kA*dA*dA*dT*dA*d[5mC]*dT*d[5mC]*dT*dA*dG*kT*kT*k[5mC]) [Compound 1075234]	22 % UTC
1076514 (antisense k[5mC]*k[5mC]*kT*dT*dA*dG*dG*dA*dG*dA*dT*dG*d[5mC]*kA*k[5mC]*k[5mC]) [Compound 1076514]	18 % UTC

Same assay, conditions: Table 17; A-431 cells, 5,000 cells per well, free uptake, 2,000 nM, approximately 48 hours; RTS4814; normalized to RIBOGREEN; Yap1 mRNA relative to untreated control cells

Substance	YAP1 (% UTC)
1075875 (kA*k[5mC]*kT*dT*dA*dA*d[5mC]*dA*dA*d[5mC]*d[5mC]*d[5mC]*dT*kA*k[5mC]*kG; antisense) [Compound 1075875]	72 % UTC
1074723 (antisense kG*kG*kT*dA*dA*dA*dG*dG*dA*dA*dG*dA*dT*k[5mC]*kT*k[5mC]) [Compound 1074723]	6 % UTC
1075107 (antisense kT*kA*kA*dA*dA*dA*d[5mC]*dA*dT*dT*dG*dT*dG*kG*k[5mC]*k[5mC]) [Compound 1075107]	114 % UTC
1074243 (antisense kT*k[5mC]*kT*dG*dA*d[5mC]*d[5mC]*dA*dG*dA*dA*dG*dA*kT*kG*kT) [Compound 1074243]	60 % UTC
1075555 (kG*k[5mC]*k[5mC]*dA*dA*dA*dA*dA*dT*dT*d[5mC]*dT*dT*kG*k[5mC]*kA; antisense) [Compound 1075555]	92 % UTC
1075459 (antisense kA*kA*k[5mC]*d[5mC]*dA*dA*dG*dG*dA*dT*dA*dG*dT*k[5mC]*kA*kT) [Compound 1075459]	37 % UTC
1076067 (kG*k[5mC]*kA*dT*dA*dT*dA*dA*dG*dA*dT*dG*dT*kT*kT*kG; antisense) [Compound 1076067]	4 % UTC
1074819 (kA*kA*kG*d[5mC]*dA*d[5mC]*dT*dG*dA*dA*dT*dA*dT*kT*kG*k[5mC]; antisense) [Compound 1074819]	33 % UTC
1075203 (antisense kT*kA*kA*dT*dT*dA*dT*dA*dT*dA*dA*dG*dG*k[5mC]*kT*kG) [Compound 1075203]	68 % UTC

Same assay, conditions: Yap1 mRNA remaining as percent of untreated control; 3-10-3 cEt gapmers; A-431 cells; Table 36

Substance	YAP1 (% UTC)
1076150 (kA*kT*kT*dT*dA*dT*dT*dA*dA*d[5mC]*dT*d[5mC]*dA*k[5mC]*kG*kA; antisense) [compound 1076150]	11 % UTC
1076246 (kT*k[5mC]*k[5mC]*dT*dA*dA*dA*dA*dA*dA*d[5mC]*dT*dA*kG*kT*kG; antisense) [compound 1076246]	75 % UTC
1076374 (antisense kA*kT*kA*dA*d[5mC]*dG*dG*dA*dT*dA*dT*dA*d[5mC]*kA*kA*kT) [compound 1076374]	15 % UTC
1076278 (kA*kA*kT*dA*dA*dG*dG*dA*d[5mC]*dA*dG*dG*dA*k[5mC]*k[5mC]*k[5mC]; antisense) [compound 1076278]	29 % UTC
1074742 (kA*kA*kA*dG*dG*dA*d[5mC]*dT*d[5mC]*dT*dT*dA*dG*kG*kT*k[5mC]; antisense) [compound 1074742]	25 % UTC
1075158 (k[5mC]*kG*kG*d[5mC]*dA*dA*dA*dA*dA*d[5mC]*dA*dA*dA*kA*kT*k[5mC]; antisense) [compound 1075158]	76 % UTC

Same assay, conditions: Yap1 mRNA remaining as percent of untreated control; 3-10-3 cEt gapmers; A-431 cells; Table 37

Substance	YAP1 (% UTC)
1076535 (kA*kT*kT*dT*dT*dT*dA*dG*d[5mC]*dT*d[5mC]*dG*d[5mC]*kA*kA*kT; antisense) [compound 1076535]	28 % UTC
1074711 (antisense kA*k[5mC]*kT*d[5mC]*dT*dA*dG*dA*dA*d[5mC]*dA*dG*d[5mC]*kT*kG*k[5mC]) [compound 1074711]	28 % UTC
1075447 (antisense k[5mC]*kA*k[5mC]*dT*dA*dT*dA*dA*dA*dT*d[5mC]*d[5mC]*dT*k[5mC]*kA*kT) [compound 1075447]	96 % UTC
1076567 (kG*kA*kT*dT*dA*d[5mC]*dA*dG*dT*dG*dA*d[5mC]*dA*kT*kT*k[5mC]; antisense) [compound 1076567]	10 % UTC
